The results in this text go back to patent US10144713B1, “Bis-cyclic guanidines as antibacterial agents” (UNIVERSITY OF SOUTH FLORIDA, priority 2017, dated 2018).

For orientation: MIC means the least concentration at which growth counts as inhibited. In general, inhibition refers to the share of the control response that was lost under treatment. Lower therefore signals little suppression.

The test system of assay [1] is P. aeruginosa (ATCC27853). Kind of assay: MIC against P. aeruginosa. It is filed as cell-based. The following applies: Pseudomonas aeruginosa, ATCC27853; Gram −; 16 h, 37° C. The protocol:
(§1) Minimum Inhibitory Concentrations (MICs) Against Bacteria.
(§2) The antimicrobial activity of the compounds was tested on the following six bacteria strains: K. pneumoniae (ATCC 13383), P. aeruginosa (ATCC27853), E. coli (ATCC 25922), vancomycin-resistant Enterococcus faecalis(ATCC 700802), Methicillin-resistant S. aureus (MRSA, ATCC 33591), Methicillin-resistant S. epidermidis (MRSE, RP62A). The procedures were followed as reported previously (Hancock et al., Immunobiology 2006, 211, 315-322). Briefly, a single colony of each bacterium was inoculated in 3 mL TSB medium and incubated overnight at 37° C. Then the bacteria culture was diluted at 1:100 and the bacteria were allowed to grow to mid-logarithmic phase. Next, 50 μL of 2-fold serial dilutions of compounds (0.1-25 μg/mL) were added the 96-well plate containing aliquots of 50 μL of bacteria suspension (1×10^6 CFU/mL) in each well. The mixture was incubated at 37° C. for 16 h, and their absorption at 600 nm wavelength was read on a Biotek Synergy HT microtiter plate reader. […] The experiments were repeated at least three times with duplicates each time. HC50 means the concentration causing 50% hemolysis.

For assay [2], the system named is K. pneumoniae (ATCC 13383). Kind of assay: MIC against K. pneumoniae. The format is cell-based. The following applies: Klebsiella pneumoniae, ATCC13383; Gram −; 16 h, 37° C. The protocol:
as §1, §2

Assay [3] relates to S. aureus. As to the kind of experiment: Fluorescence microscopy (DAPI/PI) of bacterial membranes, S. aureus. The note with it: 2 h. It is filed as cell-based. The method, then: Fluorescence microscopy studies were conducted to evaluate the ability of compound 12 to compromise membranes of S. aureus (Gram-positive bacterium) and E. coli (Gram-negative bacterium). Fluorescent agent 4′,6-diamidino-2-phenylindole (DAPI) was used to stain membranes of bacterial cells with blue fluorescence regardless of cell viability, and the red fluorescence of propidium iodide (PI) due to the DNA intercalation was used to stain impaired membranes. After MRSA and E. Coli grew to mid-logarithmic phase, the compound 12 was incubated with the bacteria at 37° C. for 2 h. The mixture was then centrifuged at 5000 rpm for 15 min. The cell pellets were washed with the PBS buffer for three times, and incubated with PI ([…]) and DAPI (10 μg/mL) for 15 min sequentially on ice in the dark. The mixture was then centrifuged and the pellets were washed with the PBS buffer. Next, 10 μL of the samples were placed on chamber slides and observed under Zeiss Axio Image Zloptical microscope using 100× oil-immersion objective.

Assay [4] has as its system E. coli. Kind of assay: Time-kill study. It is filed as cell-based. The following applies: 12.5 μg/mL. The method, then:
The killing activity was monitored for the first 2 h. The concentrations for compound 11 were 2×MIC, 4×MIC, and 8×MIC, respectively.
Time-kill studies were conducted to investigate the bacterial killing kinetics of compounds 11 and 12 by using E. Coli. Briefly, the bacteria […] grew to mid-logarithmic phase in TSB medium, from which the suspension (10^6 CFU/ml) was made. The suspension was incubated with different concentrations of 11 or 12 for 10 min, 30 min, 1 h and 2 h respectively. The mixtures were diluted by 10^2 to 10^4 fold and spread on TSB agar plates. After incubation at 37° C. overnight, the colonies on the plates were counted and plotted against the incubation time. […] Cell colonies were counted in agar plates at 12.5, 25, and 50 μg/mL. Compound 11 at the concentration of 12.5 or 25 μg/mL completely removed all bacteria in 2 hours, and at 50 μg/mL it completely removed bacteria in 0.5 hour. Compound 12 killed E. Coli completely in 0.5 hour at the concentration of 12.5 μg/mL.

Assay [5] concerns MRSA biofilm. As to the kind of experiment: Biofilm formation inhibition (crystal violet), MRSA. It is filed as cell-based, S. aureus. The method, then: (§3) Bacteria in biofilms are known to tolerate antibiotic treatment and are thus more difficult to eradicate than planktonic cells. Biofilms formed by MRSA and E. coli have frustrated the treatment of persistent bacterial infections. Compound 12 was evaluated for its ability to inhibit biofilm formation of MRSA and E. coli. Overnight grown bacteria were inoculated into fresh 10% of MHII broth at a ratio of 1:100. 100 μL of inoculated culture was incubated with appropriated amounts of compound 12 in wells of 96-well plate. The plate was incubated at 37° C. for overnight. Optical density of each well was recorded at the wavelength of 600 nm and then the biofilm biomass was recorded by the crystal violet method. Biofilm biomass was presented as CV OD/OD of growth. Relative biofilm biomass values were normalized by the biomass value of control (no addition of compound). Experiments were conducted in triplicate and the data were presented as mean±STDEV.

The test system of assay [6] is E. coli biofilm. As to the kind of experiment: Biofilm formation inhibition (crystal violet), E. coli. It is filed as cell-based. The note with it: Escherichia coli. The method, then: as §3
The test system of assay [7] is six bacteria strains (K. pneumoniae, P. aeruginosa, E. coli, VRE, MRSA, MRSE). As to the kind of experiment: Antimicrobial activity on the panel of six bacteria strains. It is filed as cell-based. The method, then: as §1, §2

`CCCCCCN1C(=N)N(CC(=O)Nc2cccc(NC(=O)CN3C[C@H](Cc4ccccc4)N(CCCCCC)C3=N)c2)C[C@@H]1Cc1ccccc1` [Compound 12]: the figures for the MIC in assay [1], in assay [2] and in assay [7] (read-out: MIC toward most strains) were 4 µg/mL, 0.75 µg/mL and 0.75 µg/mL, respectively. Also, the “membrane integrity of S. aureus (PI red fluorescence)” value in assay [3] (10 μg/mL, 37° C.) is recorded as “disrupted”. Besides, the “aggregation of S. aureus” value in assay [3] (in the presence of compound) is on record as “significant aggregation”. In addition, the “time to completely remove all bacteria” value in assay [4] was 0.5 h. The “inhibition of biofilm formation” value in assay [5] (0.39 μg/mL) is recorded as “completely eradicated”. The inhibition at 0.19 µg/mL in assay [5] (Staphylococcus aureus, 0.19 μg/mL) is 85%; in assay [6] (0.19 μg/mL), 38%. Moreover, the inhibition at 0.39 µg/mL in assay [6] (0.39 μg/mL) was about 90%. Besides, the “antibacterial activity against the tested bacteria (in words)” value in assay [7] is “potent and broad-spectrum activity”.
